The structures appear in SMILES notation. Where only a bound is given, the exact number is not on record here.

In the first assay the target is MCH receptor (Homo sapiens, UniProt Q99705). Put plainly: High throughput functional screening FLIPR/FDSS6000: inhibition of MCH-evoked intracellular Ca2+ changes. It counts as cell-based. As to conditions: class by percent of control at 10^-7 M or IC50. The method, boiled down: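 Antagonism was measured as inhibition of calcium responses to 50 nM MCH, monitored 290 s at ex 488/em 530 nm on FLIPR or FDSS6000. Beforehand, cells bearing a constitutively active MCH receptor received Fluo4-AM (4 μM, 1 h, 37 °C) with probenecid, and test compound for 3 min.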
Turning to `CN(C)c1nc(N[C@H]2CC[C@@H](NC(=S)Nc3cc([N+](=O)[O-])ccc3Cl)CC2)nc2ccccc12` [compound 298], the class was 3 (Class 3: The value of percent of control at 10^−7 M was more than 60% or the value of IC50 was more than 200 nM.).

On to `CC(NC(=S)N[C@H]1CC[C@@H](Nc2nc(N(C)C)c3ccccc3n2)CC1)c1ccccc1` (relative stereo) [compound 283], for which the class is 2 (Class 2: The value of percent of control at 10^−7 M was from 40% to 60% or the value of IC50 was from 50 nM to 200 nM.).

As for `CN(C)c1nc(N[C@H]2CC[C@@H](NC(=S)Nc3cc(Cl)c(Cl)cc3Cl)CC2)nc2ccccc12` [compound 244], the class was 3 (Class 3: The value of percent of control at 10^−7 M was more than 60% or the value of IC50 was more than 200 nM.).

Consider `Cc1ccc(NC(=S)NC[C@H]2CC[C@@H](Nc3nc(N(C)C)c4ccccc4n3)CC2)cc1` [compound 621], for which the class is on record as 3 (Class 3: The value of percent of control at 10^−7 M was more than 60% or the value of IC50 was more than 200 nM.).

In the case of `CN(C)c1nc(N[C@H]2CC[C@@H](CNC(=O)Nc3cccc(C(F)(F)F)c3F)CC2)nc2ccccc12` [compound 495], the class is given as 3 (Class 3: The value of percent of control at 10^−7 M was more than 60% or the value of IC50 was more than 200 nM.).

In the case of `CN(C)c1nc(N[C@H]2CC[C@@H](CNC(=S)Nc3ccc(I)cc3)CC2)nc2ccccc12` [compound 661], the class is 3 (Class 3: The value of percent of control at 10^−7 M was more than 60% or the value of IC50 was more than 200 nM.).

As for `CN(C)c1nc(N[C@H]2CC[C@@H](CNC(=O)Nc3cccc(SC(F)(F)F)c3)CC2)nc2ccccc12` [compound 518], the class is given as 3 (Class 3: The value of percent of control at 10^−7 M was more than 60% or the value of IC50 was more than 200 nM.).

As to `CN(C)c1nc(N[C@H]2CC[C@@H](CNC(=S)Nc3c(Cl)cccc3Cl)CC2)nc2ccccc12` [compound 595], the class is reported as 2 (Class 2: The value of percent of control at 10^−7 M was from 40% to 60% or the value of IC50 was from 50 nM to 200 nM.).

For the molecule `CN(C)c1nc(N[C@H]2CC[C@@H](NC(=O)Nc3cc(Cl)nc(Cl)c3)CC2)nc2ccccc12` [compound 352], the class is 3 (Class 3: The value of percent of control at 10^−7 M was more than 60% or the value of IC50 was more than 200 nM.).

On to `CN(C)c1nc(N[C@H]2CC[C@@H](NC(=S)NC(=O)/C=C/c3ccccc3)CC2)nc2ccccc12` [compound 326], for which the class is listed as 3 (Class 3: The value of percent of control at 10^−7 M was more than 60% or the value of IC50 was more than 200 nM.).

Consider `COc1ccc(OC)c(CCNC(=S)NC[C@H]2CC[C@@H](Nc3nc(N(C)C)c4ccccc4n3)CC2)c1` [compound 720], for which the class is listed as 3 (Class 3: The value of percent of control at 10^−7 M was more than 60% or the value of IC50 was more than 200 nM.).

Consider `Cc1ccc(Cl)cc1NC(=S)N[C@H]1CC[C@@H](Nc2nc(N(C)C)c3ccccc3n2)CC1` [compound 238], for which the class was 2 (Class 2: The value of percent of control at 10^−7 M was from 40% to 60% or the value of IC50 was from 50 nM to 200 nM.).

Regarding `CN(C)c1nc(N[C@H]2CC[C@@H](CNC(=S)Nc3c(F)c(F)c(F)c(F)c3F)CC2)nc2ccccc12` [compound 616, N-[(cis-4-{[4-(dimethylamino)quinazolin-2-yl]amino}cyclohexyl)methyl]-N′-(pentafluorophenyl)thiourea], the class is 2 (Class 2: The value of percent of control at 10^−7 M was from 40% to 60% or the value of IC50 was from 50 nM to 200 nM.).

As to `CN(C)c1nc(N[C@H]2CC[C@@H](NC(=S)Nc3ccc4nsnc4c3)CC2)nc2ccccc12` [compound 399], the class is given as 3 (Class 3: The value of percent of control at 10^−7 M was more than 60% or the value of IC50 was more than 200 nM.).

Turning to `COc1ccc(CNC(=S)N[C@H]2CC[C@@H](Nc3nc(N(C)C)c4ccccc4n3)CC2)cc1OC` [compound 304], the class is reported as 3 (Class 3: The value of percent of control at 10^−7 M was more than 60% or the value of IC50 was more than 200 nM.).

Consider `CN(C)c1nc(N[C@H]2CC[C@@H](CNC(=O)Nc3ccc(Cl)cc3)CC2)nc2ccccc12` [compound 416], for which the class is recorded as 3 (Class 3: The value of percent of control at 10^−7 M was more than 60% or the value of IC50 was more than 200 nM.).

For the molecule `Cc1c(NC(=O)NC[C@H]2CC[C@@H](Nc3nc(N(C)C)c4ccccc4n3)CC2)cccc1[N+](=O)[O-]` [compound 506, N-[(cis-4-{[4-(dimethylamino)quinazolin-2-yl]amino}cyclohexyl)methyl]-N′-(2-methyl-3-nitrophenyl)urea], the class is listed as 1 (Class 1: The value of percent of control at 10^−7 M was less than 40% or the value of IC50 was less than 50 nM.).

Regarding `CN(C)c1nc(N[C@H]2CC[C@@H](CNC(=O)Nc3cccs3)CC2)nc2ccccc12` [compound 761], the class was 3 (Class 3: The value of percent of control at 10^−7 M was more than 60% or the value of IC50 was more than 200 nM.).

As to `Cc1cc(C)c(NC(=S)N[C@H]2CC[C@@H](Nc3nc(N(C)C)c4ccccc4n3)CC2)cc1C` [compound 293, N-(cis-4-{[4-(dimethylamino)quinazolin-2-yl]amino}cyclohexyl)-N′-(2,4,5-trimethylphenyl)thiourea], the class was 1 (Class 1: The value of percent of control at 10^−7 M was less than 40% or the value of IC50 was less than 50 nM.).

Turning to `Cc1c(Cl)cccc1NC(=O)NC[C@H]1CC[C@@H](Nc2nc(N(C)C)c3ccccc3n2)CC1` [compound 528], the class is reported as 1 (Class 1: The value of percent of control at 10^−7 M was less than 40% or the value of IC50 was less than 50 nM.).

Regarding `CN(C)c1nc(N[C@H]2CC[C@@H](NC(=S)NC3CCCCCC3)CC2)nc2ccccc12` [compound 328, N-cycloheptyl-N′-(cis-4-{[4-(dimethylamino)quinazolin-2-yl]amino}cyclohexyl)thiourea], the class is recorded as 2 (Class 2: The value of percent of control at 10^−7 M was from 40% to 60% or the value of IC50 was from 50 nM to 200 nM.).

Consider `CN(C)c1nc(N[C@H]2CC[C@@H](CNC(=S)Nc3cc(C(F)(F)F)ccc3F)CC2)nc2ccccc12` [compound 641], for which the class is 3 (Class 3: The value of percent of control at 10^−7 M was more than 60% or the value of IC50 was more than 200 nM.).

The same assay, now with this note: class by percent of control at 10^-7 M or by IC50; read-out: class.
Turning to `COC(=O)NC[C@H]1CC[C@@H](Nc2nc(N(C)C)c3ccccc3n2)CC1` [compound 882], the IC50 is more than 200 nM.

Take `COc1cc(NC(=S)N[C@H]2CC[C@@H](Nc3nc(N(C)C)c4ccccc4n3)CC2)cc(OC)c1OC` [compound 195, N-(cis-4-{[4-(dimethylamino)quinazolin-2-yl]amino}cyclohexyl)-N′-(3,4,5-trimethoxyphenyl)thiourea]: the IC50 is less than 50 nM.

As for `CN(C)c1nc(N[C@H]2CC[C@@H](NC(=O)Nc3ccc(Br)cc3C(F)(F)F)CC2)nc2ccccc12` [compound 141, N-[4-bromo-2-(trifluoromethyl)pheny]-N′-(cis-4-{[4-(dimethylamino)quinazolin-2-yl]amino}cyclohexyl)urea], the IC50 is less than 50 nM.

Regarding `CN(C)c1nc(N[C@H]2CC[C@@H](NC(=O)Nc3cc(Cl)cc(Cl)c3)CC2)nc2ccccc12` [compound 23], the IC50 is more than 200 nM.

In the case of `CN(C)c1nc(N[C@H]2CC[C@@H](NC(=O)Nc3ccc(-c4ccccc4)cc3)CC2)nc2ccccc12` [compound 833], the IC50 is more than 200 nM.

For `CN(C)c1nc(N[C@H]2CC[C@@H](NC(=O)Nc3ccc(F)cc3F)CC2)nc2ccccc12` [compound 21, N-(2,4-difluorophenyl)-N′-(cis-4-{[4-(dimethylamino)quinazolin-2-yl]amino}cyclohexyl)urea], the IC50 is less than 50 nM.

`Cc1c(NC(=O)N[C@H]2CC[C@@H](Nc3nc(N(C)C)c4ccccc4n3)CC2)cccc1[N+](=O)[O-]` [compound 107, N-(cis-4-{[4-(dimethylamino)quinazolin-2-yl]amino}cyclohexyl)-N′-(2-methyl-3-nitrophenyl)urea]: the IC50 was less than 50 nM.

`CC(C)NC(=O)N[C@H]1CC[C@@H](Nc2nc(N(C)C)c3ccccc3n2)CC1` [compound 42]: the IC50 was more than 200 nM.

As for `COc1ccccc1OC(=O)N[C@H]1CC[C@@H](Nc2nc(N(C)C)c3ccccc3n2)CC1` [compound 851], the IC50 was more than 200 nM.

Turning to `CN(C)c1nc(N[C@H]2CC[C@@H](NC(=S)NC3CCCC3)CC2)nc2ccccc12` [compound 162, N-cyclopentyl-N′-(cis-4-{[4-(dimethylamino)quinazolin-2-yl]amino}cyclohexyl)thiourea], the IC50 is 50 to 200 nM.

The assay is the same for the next values; noted with them: class by percent of control at 10^−7 M or by IC50; read-out: class.
Turning to `CC(=O)Nc1cccc(C(=O)N[C@H]2CC[C@@H](Nc3nc(N(C)C)c4ccccc4n3)CC2)c1` [Example 1204, 3-(acetylamino)-N-(cis-4-{[4-(dimethylamino)quinazolin-2-yl]amino}cyclohexyl)benzamide], the IC50 was less than 50 nM.

Consider `CN(C)c1nc(N[C@H]2CC[C@@H](C(=O)NCc3ccc(Cl)nc3)CC2)nc2cc(F)c(F)cc12` [Example 996, cis-N-[(6-chloropyridin-3-yl)methyl]-4-{[4-(dimethylamino)-6,7-difluoroquinazolin-2-yl]amino}cyclohexanecarboxamide], for which the IC50 lay within 50 to 200 nM.

As for `CN(C)c1nc(N[C@H]2CC[C@@H](NC(=O)c3ccc(Oc4ccccc4F)nc3)CC2)nc2ccccc12` [Example 1050, N-(cis-4-{[4-(dimethylamino)quinazolin-2-yl]amino}cyclohexyl)-6-(2-fluorophenoxy)nicotinamide], the IC50 is less than 50 nM.

As for `CN(C)c1nc(N[C@H]2CC[C@@H](C(=O)NCc3ccc(F)c(F)c3F)CC2)nc2ccccc12` [Example 1169, cis-4-{[4-(dimethylamino)quinazolin-2-yl]amino}-N-(2,3,4-trifluorobenzyl)cyclohexanecarboxamide], the IC50 is less than 50 nM.

Source of the values: patent US20070010671A1, “Novel quinazoline derivatives and methods of treatment related to the use thereof” (priority 2003, published 2007).
